Like-named read-outs stand apart in the source and are kept apart here.
Tests used:
topoisomerase I (Topo I) = biological target: T1, topoisomerase I (Topo I) (Homo sapiens, UniProt P11387); test: Topo I enzyme-inhibitory activity by agarose-gel electrophoresis (plasmid relaxation); format: biochemical
T1 sequence (P11387 1-765): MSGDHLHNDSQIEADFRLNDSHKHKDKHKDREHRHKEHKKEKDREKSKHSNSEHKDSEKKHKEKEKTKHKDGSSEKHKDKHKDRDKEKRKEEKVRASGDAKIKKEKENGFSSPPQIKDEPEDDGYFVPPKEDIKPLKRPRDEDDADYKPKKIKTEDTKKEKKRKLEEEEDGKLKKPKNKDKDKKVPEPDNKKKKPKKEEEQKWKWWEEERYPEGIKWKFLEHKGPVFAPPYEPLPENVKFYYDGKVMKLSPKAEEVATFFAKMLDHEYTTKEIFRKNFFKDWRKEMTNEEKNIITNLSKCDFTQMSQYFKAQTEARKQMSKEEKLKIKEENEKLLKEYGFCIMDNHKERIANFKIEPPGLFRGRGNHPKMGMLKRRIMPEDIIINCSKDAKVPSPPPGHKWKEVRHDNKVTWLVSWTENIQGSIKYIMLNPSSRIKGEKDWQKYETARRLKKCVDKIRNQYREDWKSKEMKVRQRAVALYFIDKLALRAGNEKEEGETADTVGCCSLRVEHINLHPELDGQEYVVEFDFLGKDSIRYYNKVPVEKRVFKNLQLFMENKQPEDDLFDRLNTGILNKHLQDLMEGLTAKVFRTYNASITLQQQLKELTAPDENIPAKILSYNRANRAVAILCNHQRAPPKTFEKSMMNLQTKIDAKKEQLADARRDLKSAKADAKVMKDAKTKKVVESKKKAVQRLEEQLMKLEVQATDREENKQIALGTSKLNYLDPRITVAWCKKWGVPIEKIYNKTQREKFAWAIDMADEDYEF
How it was run: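 Supercoiled pNO1 plasmid (0.5 µg) was relaxed by Topo I (0.75 U) in 20 mM Tris-HCl pH 7.5, 200 mM NaCl, 0.25 mM EDTA, 5 % glycerol, 5 % DMSO final, for 30 min at 37 °C. Supercoiled band intensity on agarose gel was normalized to no-enzyme and vehicle controls. IC50 from a four-parameter logistic fit.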

[1] = Pharmacokinetic study in mice, plasma concentrations by LC-MS/MS; conditions: mouse, in vivo

| SMILES | IC50 (topoisomerase I (Topo I)) [nM] | AUC(0-t) at 24 h ([1]; iv, 2 mg/kg) [ng·h/mL] | Cmax ([1]; iv, 2 mg/kg) [ng/mL] | clearance ([1]; iv, 2 mg/kg) [mL/min/kg] | half-life ([1]; iv, 2 mg/kg) [min] | AUC(0-t) at 24 h ([1]; po, 20 mg/kg) [ng·h/mL] | Cmax ([1]; po, 20 mg/kg) [ng/mL] | Tmax ([1]; po, 20 mg/kg) [min] | bioavailability ([1]; po, 20 mg/kg) [%] | half-life ([1]; po, 20 mg/kg) [min] | IC50 (topoisomerase I (Topo I); read-out: inhibition of topoisomerase I (Topo I) enzymatic activity, IC50, 0.75 U Topo I, pNO1 plasmid, 37 °C, 30 min, compounds listed by group (Group A / Group B)) [nM] | AUC(0-t) at 24 h ([1]; iv, 1 mg/kg) [ng·h/mL] | Cmax ([1]; iv, 1 mg/kg) [ng/mL] | clearance ([1]; iv, 1 mg/kg) [mL/min/kg] | half-life ([1]; iv, 1 mg/kg) [min] |
| --- | --- | --- | --- | --- | --- | --- | --- | --- | --- | --- | --- | --- | --- | --- | --- |
| CC[C@@]1(O)C(=O)OCc2c1cc1n(c2=O)Cc2c-1c(=O)c1cc(F)cc(C)c1n2C [Example 2, (S)-4-ethyl-8-fluoro-4-hydroxy-10,11-dimethyl-1,12-dihydro-14H-pyrano[3,4:6,7]indolizino[2,1-b]quinoline-3,6,14(4H,11H)-trione] | < 200 | 323 | 604 | 110 | 69.6 | 911 | 956 | 25.2 | 28.5 | 135 | – | – | – | – | – |
| CC[C@@]1(O)C(=O)OCc2c1cc1n(c2=O)Cc2c-1c(=O)c1cc(F)ccc1n2CCN(C)C1CCCC1 [Example 117] | – | – | – | – | – | – | – | – | – | – | 200 to 500 | 38.7 | 107 | 439 | 14.1 |
